Key:
FcεRIγ = FcεRIγ expression in DR1 TCR tg cells; assay type: cell-based, mouse; details: DR1 TCR tg cells cultured with peptide 48 hours; FIG. 6
Protocol: In FIG. 6 it is shown that A12 treatment increases […] expression. In the graph with axis 610 for the percentage of the maximum, axis 615 for the number of occurrences on a log scale, line 620 is for A2, line 625 is for media alone, and line 630 is for A12. Splenocytes from DR1 TCR transgenic mice were cultured for 48 hours in the presence of A12 (dark grey line), A2 (black line) or media alone (light grey line). […] The cells cultured with A2 peptide are no different than unstimulated controls.
Finally, we examined the expression of FcεRIγ, a molecule known to associate with the TCR complex. In some circumstances, the TCR is rewired so that the FcRgamma chain assumes the function of the zeta chain. Therefore, the DR1 TCR tg cells were cultured with either A12, or A2, or media alone and stained with an antibody specific for the gamma chain of the FcεRIγ molecule.

RA PBMC = assay: 27 cytokines multiplex assay of 48 h RA PBMC culture supernatants; assay type: cell-based, human; details: APL A12 10 μg/ml + α1(II) 50 μg/ml, 6 RA patients
Protocol: We assessed the ability of APL A12 added to cultures of PBMC to affect production of IFNγ and other Th1 and Th2 cytokines by the cultured PBMC stimulated with α1(II) from 18 RA patients, 16 of whom had known HLA DR B1 haplotypes. 16 of these patients were taking methothexate, 10 NSAIDS and 12 anti-TNF agents. One patient was taking Arava. Isolated PBMC were resuspended in Dulbecco's minimal essential medium containing penicillin (100 U/ml), streptomycin (100 μg/ml), 9% fetal calf serum (FCS), and non-essential amino acids thereafter referred to as “Complete Medium” at a concentration of 4×10^6 cells/ml. Aliquots (0.5 ml) of the cell suspension were dispensed into wells of 48 well tissue culture plates (NUNC, Roskilde, Denmark).

TCR-ζ chain = assay: Phosphorylation of the TCR-ζ chain in CII-specific CD4+ T cells; assay type: cell-based, mouse; details: CD4+ T cells cultured with peptide-pulsed APCs; FIG. 4
Protocol: Purified CD4+ cells from the DR1-TCR tg mice are an excellent source of cells to explore the intracellular signaling pathways induced by either A2 or A12. In preliminary experiments we precipitated proteins with an antibody specific for CD3-ζ (34) to examine for the presence of phosphorylated proteins.
CD4+T cells were cultured with APC's pulsed with the wild-type peptide (WT), A12, or no antigen (No Ag). Proteins were immunoprecipitated with […] of affinity-purified anti-TCR-ζ antibody. The immunoprecipitates were separated by SDS-12%-PAGE, and transferred to nitrocellulose membrane. The membrane was blotted with monoclonal anti-phosphotyrosine antibody (α-pTyr). The positions of the phosphorylated-TCR-ζ are shown by arrows 410, 415. The 21 kDa and 23 kDa bands were not detected in immunoprecipitates from a B cell lymphoma line (data not shown). Bands for the total amount of zeta protein were identical for all three columns. Arrows 410 and 415 are shown denoting 21 kDa and 23 kDa bands, respectively. […] The bands are for No Ag 440, Wt 445, and A12 450. The bands are shown: Wt 425, No Ag 435, A12 430. Bands for zeta protein are shown: No Ag 455, Wt 460, and A12 465.

LGPKGQTGEBGIAGAKGDQGPKGEBGPA [APL A12]
FcR gamma chain (FcεRIγ) expression (FcεRIγ): significant increase | IL-1ra (RA PBMC): 2013 ± 220 pg/mL | IL-2 (RA PBMC): 6 ± 0.9 pg/mL | IL-10 (RA PBMC): 555 ± 104 pg/mL | IP-10 (RA PBMC): 114 ± 91 pg/mL | PDGF-bb (RA PBMC): 39 ± 25 pg/mL | RANTES (RA PBMC): 750 ± 183 pg/mL | TNFα (RA PBMC): 84 ± 17 pg/mL | TCR-ζ chain phosphorylation (TCR-ζ chain): did not significantly activate

Source: patent US9144595B2, “APLs for treating arthritis” (University of Tennessee Research Foundation, priority 2009, dated 2015)
